In ChEMBL document CHEMBL6182924, “Discovery of a Novel and Potent MET Transcription Inhibitor Targeting Promoter G-Quadruplex for the Treatment of NSCLC” (J Med Chem, 2025):
Calls of active or inactive are those of the source. The calls are words filed in the database; no cut-off is given here.

Assays:
A549 [1] = assay: Antiproliferative activity against human A549 cells incubated for 3 days by CCK-8 assay; format: functional, cell-based; conditions: A549, 72 h
A549 [2] = assay: Downregulation of c-MYC expression in human A549 cells up to 2000 nM incubated for 72 hrs by Western blot analysis; format: functional, cell-based
Quadruplex DNA = assay: Binding affinity to G-quadruplex DNA (unknown origin) at 5 uM by fluorescence quenching analysis; format: nucleic-acid assay
A549 [3] = assay: Antitumor activity against human A549 cells xenografted in BALB/c mouse assessed as tumor growth inhibition at 20 mg/kg, po administered once a day and measured up to 24 days; format: functional; conditions: A549, 576 h, time <= 24 day, read-out: TGI
BaF3 [4] = assay: Antiproliferative activity against mouse BaF3 cells harboring TPR-MET L1195V mutant incubated for 24 hrs by CCK-8 assay; format: functional, cell-based; conditions: BaF3, 24 h
BaF3 [5] = assay: Antiproliferative activity against mouse BaF3 cells harboring TPR-MET […] mutant incubated for 24 hrs by CCK-8 assay; format: functional, cell-based; conditions: BaF3, 24 h
BaF3 [6] = assay: Antiproliferative activity against mouse BaF3 cells harboring TPR-MET D1228N mutant incubated for 24 hrs by CCK-8 assay; format: functional, cell-based; conditions: BaF3, 24 h

IC50 (A549 [1]) | SMILES | other results
3200 nM | O=[N+]([O-])c1ccc(-c2ccc(-c3nc4c5cccnc5c5ncccc5c4[nH]3)o2)cc1 | –
1430 nM | Fc1cccc(-c2ccc(-c3nc4c5cccnc5c5ncccc5c4[nH]3)o2)c1 | –
4470 nM | Brc1ccc(-c2nc3c4cccnc4c4ncccc4c3[nH]2)o1 | –
6530 nM | N#Cc1cccc(-c2csc(-c3nc4c5cccnc5c5ncccc5c4[nH]3)c2)c1 | –
1050 nM | N#Cc1cccc(-c2ccc(-c3nc4c5cccnc5c5ncccc5c4[nH]3)o2)c1 | –
3720 nM | Cn1ccc(-c2csc(-c3nc4c5cccnc5c5ncccc5c4[nH]3)c2)n1 | –
4900 nM | N#Cc1ccc(-c2ccc(-c3nc4c5cccnc5c5ncccc5c4[nH]3)o2)cc1 | –
710 nM | c1cnc2c(c1)c1nc(-c3ccc(-c4ccc5c(c4)OCCO5)o3)[nH]c1c1cccnc12 | –
2130 nM | Oc1ccc(-c2ccc(-c3nc4c5cccnc5c5ncccc5c4[nH]3)o2)cc1 | –
4950 nM | Cn1ccc(-c2ccc(-c3nc4c5cccnc5c5ncccc5c4[nH]3)o2)n1 | –

The remaining lines, values behind:

SMILES | IC50 (A549 [1]) | other results
O=C(Nc1cccc(-c2cc3cccnc3c3ncccc23)c1)c1ccc(Cl)nc1 | 3440 nM | –
COc1cccc(C(=O)Nc2cccc(-c3cc4cccnc4c4ncccc34)c2)c1OC | 1200 nM | –
O=C(Nc1cccc(-c2cc3cccnc3c3ncccc23)c1)c1ccc2nccnc2c1 | 800 nM | Activity (A549 [2]): Active
Brc1csc(-c2nc3c4cccnc4c4ncccc4c3[nH]2)c1 | 6100 nM | –
c1cnc2c(c1)c1nc(-c3cc(-c4ccc5c(c4)OCCO5)cs3)[nH]c1c1cccnc12 | 890 nM | –
COc1cc(-c2nc3c4cccnc4c4ncccc4c3[nH]2)cc2c1OCO2 | – | Activity (Quadruplex DNA): Active
COc1cccc(-c2csc(-c3nc4c5cccnc5c5ncccc5c4[nH]3)c2)c1 | 580 nM | –
COc1ccc(C(=O)Nc2cccc(-c3cc4cccnc4c4ncccc34)c2)cc1 | 1130 nM | –
Nc1cccc(-c2cc3cccnc3c3ncccc23)c1 | – | Activity (Quadruplex DNA): Active
COc1cc2nccc(Oc3ccc(NC(=O)C4(C(=O)Nc5ccc(F)cc5)CC4)cc3)c2cc1OC [CABOZANTINIB] | 4400 nM | inhibition in vivo at 20 mg/kg (A549 [3]): 51.7%; IC50 (BaF3 [4]): 920 nM; IC50 (BaF3 [5]): 3980 nM; IC50 (BaF3 [6]): 5840 nM
O=C(Nc1cccc(-c2cc3cccnc3c3ncccc23)c1)c1ccccc1 | 1790 nM | –
N#Cc1cccc(C(=O)Nc2cccc(-c3cc4cccnc4c4ncccc34)c2)c1 | 2510 nM | –
